In test [1] the target is T1, human D2S receptor (Homo sapiens, UniProt P14416).
T1 construct: expressed in transfected cells; host or cells: CHO-K1
Put plainly: Competition radioligand binding at human D2 receptor ([3H]-Spiperone, CHO-K1 membranes). As to conditions: for inhibition at 10 µM: read-out: huD2 % inh. at 10 µM. The method, then:
Experiments were carried out in membranes isolated from a CHO-K1 cell line stably overexpressing the cloned human D2S receptor.
Competition radioligand binding assays were performed on membranes isolated from cell lines stably expressing the cloned human receptors, which were either in-house or commercially available. […] Assays (250 μL assay final volume) were carried out in 96-well polypropylene plates in duplicate. In short, the suspension of appropriate membrane protein was incubated in an assay buffer with the addition of the corresponding radioligand, in the presence or absence of a tested compound or reference compound. […] After the incubation, the content of the test plates was transferred to 96 well plates with glass fiber filter GF/B or GF/C, previously pretreated with polyethyleneimine (PEI), and rapidly filtered with the use of vacuum, followed by rapid washing with cold (4 °C) wash buffer. After that, the filter plates were dried at 60 °C for 1 h. Then, 30 μL of liquid scintillation cocktail (UniverSol-ES, MP Biomedicals, Solon, OH, USA) was added to each well of the filter plates, and the radioactivity was measured in a MicroBeta^2 microplate scintillation counter (PerkinElmer, Madrid, Spain).
Competition binding curves were fitted to a one-site competition binding model (Fit Ki) with the use of Prism 7 software (GraphPad, San Diego, CA, USA). logKi (log of the equilibrium dissociation constant (Ki)) values were obtained after constraining the concentration of radioligand employed in the assay and its dissociation constant (KD) as determined in saturation radioligand binding assays.

Test [2] relates to mice. Kind of test: Forced swim test (FST). It is filed as in vivo. As to conditions: imipramine 30 mg/kg i.p., 60 min before the test; p < 0.001. How it is done:
The experiments were carried out on 6 weeks old naive Swiss male mice (Experimental Medicine Center (OMD), Lublin, Poland), weighing 28–30 g. The cages with mice were located in air-conditioned rooms maintaining the ambient temperature within the range of 23–25 °C. The animals were provided with a natural 12 h day/night cycle, replicating the day and night mode. Each testing group was represented by 8–10 animals, depending on the research schedule. All experiments were conducted according to the National Institute of Health Guidelines for the Care and Use of Laboratory Animals (8th edition) and to the European Community Council Directive for the Care and Use of Laboratory Animals of 22 September 2010 (2010/63/EU) and were approved by the Local Ethical Committee (number of ethical approval: 147/2018). Compound 17 (25, 50, 75 mg/kg) was suspended in 1% Tween 80 in saline solution and was administered intraperitoneally (i.p.) 60 min before the test. […] Imipramine hydrochloride (30 mg/kg, Sigma-Aldrich was administered intraperitoneally (i.p.) 60 min before the test. […] Sigma-Aldrich, USA) was given subcutaneously (s.c.). Prior to administration, the agent was dissolved in saline and injected 30 min before the test. Control animals received an (i.p.) or (s.c.) injection of a respective vehicle. All compounds were injected in a manner generally accepted in experimental pharmacology, in an amount of 10 mL/kg body weight. Forced Swim Test was carried out according to the method of Porsolt et al.. It is a standard behavioral test, called the resignation test, which is used to determine the effectiveness of antidepressant drugs in laboratory rodents. Each mouse was placed individually for 6 min into a glass cylinder (height 25 cm, diameter 10 cm) with 15 cm of water at 23–25 °C. After the first 2 min of the test, the total duration of immobility (in seconds) was measured. An animal was judged to be immobile when it ceased struggling and remained floating motionless and making only movements allowing it to keep the head just above the surface of the water.

Test [3] deals with mice. Put plainly: Amphetamine-induced hyperactivity in mice. Format: in vivo. Particulars: amphetamine 3 mg/kg s.c. How it is done: The experiments were carried out on 6 weeks old naive Swiss male mice (Experimental Medicine Center (OMD), Lublin, Poland), weighing 28–30 g. The cages with mice were located in air-conditioned rooms maintaining the ambient temperature within the range of 23–25 °C. The animals were provided with a natural 12 h day/night cycle, replicating the day and night mode. Each testing group was represented by 8–10 animals, depending on the research schedule. All experiments were conducted according to the National Institute of Health Guidelines for the Care and Use of Laboratory Animals (8th edition) and to the European Community Council Directive for the Care and Use of Laboratory Animals of 22 September 2010 (2010/63/EU) and were approved by the Local Ethical Committee (number of ethical approval: 147/2018).
Compound 17 (25, 50, 75 mg/kg) was suspended in 1% Tween 80 in saline solution and was administered intraperitoneally (i.p.) 60 min before the test. Diazepam (DZ, Relanium, Polfa, Poland) at a dose of 1 mg/kg was diluted in 0.9% saline containing 1% Tween 80 and was administered subcutaneously (s.c.), 60 min before the test. Imipramine hydrochloride (30 mg/kg, Sigma-Aldrich was administered intraperitoneally (i.p.) 60 min before the test. D-amphetamine sulfate (3 mg/kg; Sigma-Aldrich, USA) was given subcutaneously (s.c.). Prior to administration, the agent was dissolved in saline and injected 30 min before the test. Control animals received an (i.p.) or (s.c.) injection of a respective vehicle. All compounds were injected in a manner generally accepted in experimental pharmacology, in an amount of 10 mL/kg body weight.
The measurement of the spontaneous locomotor activity was carried out using the OptoVarimex 4 Auto-Track device (Columbus Instruments, Columbus, OH, USA). Tested animals are kept in cages for 30 min. Their activity was recorded as interruptions of the light beams after 10 and 30 min of the test, and it was calculated automatically as a traveled distance in cm (±SEM). To determine whether compound 17 has an influence on amphetamine-induced hyperactivity, each mouse received 17 (25, 50 and 75 mg/kg; i.p.) and amphetamine (3 mg/kg; s.c.) 30 min after injection of 17 or vehicle and then spontaneous locomotor activity was measured.

Where a name gives a salt, the structure may show the parent alone.

T1 sequence (P14416 1-414 isoform P14416-2): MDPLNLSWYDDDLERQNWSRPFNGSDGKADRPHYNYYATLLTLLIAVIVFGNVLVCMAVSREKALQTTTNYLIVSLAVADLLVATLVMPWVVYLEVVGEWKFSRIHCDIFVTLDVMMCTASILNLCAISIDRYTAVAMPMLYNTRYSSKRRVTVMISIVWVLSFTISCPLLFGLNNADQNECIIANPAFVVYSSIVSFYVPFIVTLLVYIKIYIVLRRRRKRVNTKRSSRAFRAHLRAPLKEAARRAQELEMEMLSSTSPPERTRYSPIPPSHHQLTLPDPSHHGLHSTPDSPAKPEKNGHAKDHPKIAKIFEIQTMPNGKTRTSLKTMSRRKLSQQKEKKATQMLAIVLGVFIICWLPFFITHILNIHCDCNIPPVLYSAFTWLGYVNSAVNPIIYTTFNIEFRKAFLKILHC

Consider `O=C(CCN1C(=O)CSc2ccccc21)Nc1cccc(Cl)c1` [Compound 16, N-(3-Chlorophenyl)-3-(3-oxo-2,3-dihydro-4H-benzo[b][1,4]thiazin-4-yl)propanamide], for which the inhibition at 10 µM in test [1] came to 42 ± 8%.
`O=C(CCN1C(=O)CSc2ccccc21)Nc1ccccc1[N+](=O)[O-]` [Compound 21, N-(2-Nitrophenyl)-3-(3-oxo-2,3-dihydro-4H-benzo[b][1,4]thiazin-4-yl)propanamide]: the inhibition at 10 µM in test [1] worked out at 5 ± 3%.
In the case of `O=C(CCN1C(=O)CSc2ccccc21)Nc1ccccc1` [Compound 10, 3-(3-Oxo-2,3-dihydro-4H-benzo[b][1,4]thiazin-4-yl)-N-phenylpropanamide], the inhibition at 10 µM in test [1] is 39 ± 4%.
The same measure, in the same setting: in the case of `O=C(CN1C(=O)CSc2ccccc21)Nc1ccc(C(F)(F)F)cc1` [Compound 9, 2-(3-Oxo-2,3-dihydro-4H-benzo[b][1,4]thiazin-4-yl)-N-(4-(trifluoromethyl)phenyl)acetamide] it was 8 ± 8%; in that of `O=C(CCn1c(=O)sc2ccccc21)Nc1ccc(C(F)(F)F)cc1` [Compound 2, 3-(2-Oxobenzo[d]thiazol-3(2H)-yl)-N-(4-(trifluoromethyl)phenyl)propanamide], 11 ± 5%; in that of `O=C(CCN1C(=O)CSc2ccccc21)Nc1ccccc1Cl` [Compound 15, N-(2-Chlorophenyl)-3-(3-oxo-2,3-dihydro-4H-benzo[b][1,4]thiazin-4-yl)propanamide], 9 ± 3%.
For the molecule `COc1ccccc1NC(=O)CCN1C(=O)CSc2ccccc21` [Compound 18, N-(2-Methoxyphenyl)-3-(3-oxo-2,3-dihydro-4H-benzo[b][1,4]thiazin-4-yl)propanamide], in test [1], the inhibition at 10 µM stood at 6%.
As for `O=C(CCN1CCCCC1=O)Nc1ccc(C(F)(F)F)cc1` [Compound 6, 3-(2-Oxopiperidin-1-yl)-N-(4-(trifluoromethyl)phenyl)propanamide], in test [1], the inhibition at 10 µM was determined as 14 ± 11%.
On to `O=C(CCN1C(=O)COc2ccccc21)Nc1ccc(C(F)(F)F)cc1` [Compound 1, 3-(3-Oxo-2,3-dihydro-4H-benzo[b][1,4]oxazin-4-yl)-N-(4-(trifluoromethyl)phenyl)propanamide], for which the inhibition at 10 µM in test [1] was determined as 35 ± 14%.
For `Cc1ccccc1S(=O)(=O)NCCC(=O)Nc1ccc(C(F)(F)F)cc1` [Compound 7, 3-((2-Methylphenyl)sulfonamido)-N-(4-(trifluoromethyl)phenyl)propanamide], the inhibition at 10 µM in test [1] came to 13 ± 13%.
`CN(C)CCCN1c2ccccc2CCc2ccccc21` [imipramine, Imipramine hydrochloride, reference compound]: the “effect on immobility time” value in test [2] was “statistically significant decrease”.
For the molecule `O=C(CCN1C(=O)CSc2ccccc21)Nc1ccccc1C(F)(F)F` [Compound 11, 3-(3-Oxo-2,3-dihydro-4H-benzo[b][1,4]thiazin-4-yl)-N-(2-(trifluoromethyl)phenyl)propanamide], the inhibition at 10 µM in test [1] amounted to 9 ± 1%.
Turning to `O=C(CCN1CCSCC1=O)Nc1ccc(C(F)(F)F)cc1` [Compound 5, 3-(3-Oxothiomorpholino)-N-(4-(trifluoromethyl)phenyl)propanamide], the inhibition at 10 µM in test [1] worked out at 14 ± 10%.
Consider `O=C(CCN1C(=O)CSc2ccccc21)Nc1cccc([N+](=O)[O-])c1` [Compound 22, N-(3-Nitrophenyl)-3-(3-oxo-2,3-dihydro-4H-benzo[b][1,4]thiazin-4-yl)propanamide], for which the inhibition at 10 µM in test [1] turned out to be 27 ± 2%.
As to `O=C(CCn1c(=O)oc2ccccc21)Nc1ccc(C(F)(F)F)cc1` [Compound 3, 3-(2-Oxobenzo[d]oxazol-3(2H)-yl)-N-(4-(trifluoromethyl)phenyl)propanamide], the inhibition at 10 µM in test [1] turned out to be 8 ± 8%.
Still for that read-out and setting: in the case of `COc1ccc(NC(=O)CCN2C(=O)CSc3ccccc32)cc1` [Compound 20, N-(4-Methoxyphenyl)-3-(3-oxo-2,3-dihydro-4H-benzo[b][1,4]thiazin-4-yl)propanamide] it was 47 ± 1%.
Broadly, the Ki is the equilibrium dissociation constant of an inhibitor or competing ligand from its target. With `O=C(CCN1C(=O)CCOc2ccccc21)Nc1ccc(C(F)(F)F)cc1` [Compound 4, 3-(4-Oxo-3,4-dihydrobenzo[b][1,4]oxazepin-5(2H)-yl)-N-(4-(trifluoromethyl)phenyl)propanamide], in test [1] (D2 receptor affinity), the “decrease of activity compared to the initial compound (D2AAK2)” value turned out to be 10 fold. In test [1] (mean ± SEM of 2–3 independent experiments in duplicate, read-out: huD2 Ki), the Ki was 3.846 ± 0.035 µM.
Turning to `Cc1cccc(NC(=O)CCN2C(=O)CSc3ccccc32)c1` [Compound 13, 3-(3-Oxo-2,3-dihydro-4H-benzo[b][1,4]thiazin-4-yl)-N-(m-tolyl)propanamide], in test [1], the inhibition at 10 µM was determined as 32 ± 4%.
Take `COc1cccc(NC(=O)CCN2C(=O)CSc3ccccc32)c1` [Compound 19, N-(3-Methoxyphenyl)-3-(3-oxo-2,3-dihydro-4H-benzo[b][1,4]thiazin-4-yl)propanamide]: in test [1], the inhibition at 10 µM is 10 ± 4%.
Same read-out and setting: as for `Cc1ccccc1NC(=O)CCN1C(=O)CSc2ccccc21` [Compound 12, 3-(3-Oxo-2,3-dihydro-4H-benzo[b][1,4]thiazin-4-yl)-N-(o-tolyl)propanamide], the figure is 10%; as for `Cc1ccc(S(=O)(=O)NCCC(=O)Nc2ccc(C(F)(F)F)cc2)cc1` [Compound 8, 3-((4-Methylphenyl)sulfonamido)-N-(4-(trifluoromethyl)phenyl)propanamide], 8 ± 7%.
Consider `C[C@H](N)Cc1ccccc1` [amphetamine, D-amphetamine sulfate, reference compound], for which, in test [3], the “effect on locomotor activity compared to the control group after 10 min” value was “increased mice locomotor activity” and the “effect on locomotor activity compared to the control group after 30 min” value is recorded as “increased mice locomotor activity”.

These data come from article PMC10223470 (Molecules, 2023).
